Measured values taken from ChEMBL document CHEMBL1134083, “Discovery of a nuclease-resistant, non-natural dinucleotide that inhibits HIV-1 integrase” (Bioorg Med Chem Lett, 2001).
pIC50: −log10 of the molar value.

Assays:
[1] = biological target: T1, Human immunodeficiency virus type 1 integrase (Human immunodeficiency virus 1, UniProt Q7ZJM1); test: Inhibitory concentration required against recombinant wild type HIV integrase by reproducible assay (3' processing)
[2] = biological target: T1, Human immunodeficiency virus type 1 integrase; test: Inhibitory concentration required against recombinant wild type HIV integrase by reproducible assay (Strand transfer)

T1 sequence (Q7ZJM1 whole entry): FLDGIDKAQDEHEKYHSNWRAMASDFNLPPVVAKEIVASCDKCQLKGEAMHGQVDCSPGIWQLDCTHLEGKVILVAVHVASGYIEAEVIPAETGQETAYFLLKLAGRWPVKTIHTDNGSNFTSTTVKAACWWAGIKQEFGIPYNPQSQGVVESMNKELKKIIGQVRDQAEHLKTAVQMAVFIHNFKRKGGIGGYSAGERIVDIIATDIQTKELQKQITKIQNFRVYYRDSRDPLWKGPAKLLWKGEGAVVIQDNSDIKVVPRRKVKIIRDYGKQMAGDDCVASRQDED

pIC50 [1]: 5.12 | pIC50 [2]: 5.23
Structure (SMILES): Nc1ccn([C@H]2C[C@H](OP(=O)(O)OC[C@H]3OC[C@@H](n4ccc(=O)[nH]c4=O)[C@@H]3O)[C@@H](COP(=O)(O)O)O2)c(=O)n1
